1 compound from ChEMBL document CHEMBL2331147, “Scutellarin from Scutellaria baicalensis suppresses adipogenesis by upregulating PPARα in 3T3-L1 cells” (J Nat Prod, 2013) can be followed below.

The subject of data set [1] is 3T3-L1. The data set can be described thus: Effect on PPARdelta mRNA expression in mouse 3T3L1 cells at 10 to 100 uM after 8 days by RT-PCR analysis. In kind it is functional, cell-based.
The subject of data set [2] is 3T3-L1. The data set can be described thus: Antiadipogenic activity in mouse 3T3L1 cells assessed as upregulation of PPARalpha mRNA expression after 8 days by RT-PCR analysis. In kind it is functional, cell-based.
The test system of data set [3] is 3T3-L1. The data set can be described thus: Downregulation of C/EBPbeta mRNA expression in mouse 3T3L1 cells at 10 to 100 uM after 8 days by RT-PCR analysis. Type of data set: functional, cell-based.
Data set [4] deals with 3T3-L1. The data set can be described thus: Antiadipogenic activity in mouse 3T3L1 cells assessed as downregulation of LPL mRNA expression at 10 to 100 uM after 8 days by RT-PCR analysis. Type of data set: functional, cell-based.
Data set [5] has as its system 3T3-L1. The data set can be described thus: Antiadipogenic activity in mouse 3T3L1 cells assessed as downregulation of C/EBPalpha mRNA expression after 8 days by RT-PCR analysis. In kind it is functional, cell-based.
In data set [6] the test system is 3T3-L1. The data set can be described thus: Antiadipogenic activity in mouse 3T3L1 cells assessed as downregulation of PPARgamma mRNA expression after 8 days by RT-PCR analysis. In kind it is functional, cell-based.
Data set [7] concerns 3T3-L1. The data set can be described thus: Antiadipogenic activity in mouse 3T3L1 cells assessed as decrease in intracellular lipid accumulation incubated for 8 days followed by compound wash out measured for 60 mins by Oil Red O staining-based phase contrast microscopic analysis. Type of data set: functional, cell-based.
Data set [8] concerns 3T3-L1. The data set can be described thus: Cytotoxicity against mouse 3T3L1 cells assessed as cell viability at < 100 uM after 48 hrs by MTT assay. Type of data set: cell-based. The settings on record: 3t3-l1, 48 h. For orientation: Tetrazolium assays rely on reduction of a dye to a coloured formazan, in cell work by metabolically active cells.

Activity calls are given as the source filed them. The calls are words filed in the database; no cut-off is given here.

Consider `O=C(O)[C@H]1O[C@@H](Oc2cc3oc(-c4ccc(O)cc4)cc(=O)c3c(O)c2O)[C@H](O)[C@@H](O)[C@@H]1O` [SCUTELLARIN], for which the outcome in the data set with 3T3-L1 [1] and with 3T3-L1 [3] was inactive. Also, the Activity entry in the data set on 3T3-L1 [2] was “Dose-dependent effect”; in the data set with 3T3-L1 [5], “Dose-dependent effect”; in the data set on 3T3-L1 [6] it was “Dose-dependent effect”; in the data set with 3T3-L1 [7], “Dose-dependent effect”; in the data set on 3T3-L1 [8], “Non-toxic”. Moreover, the result in the data set on 3T3-L1 [4] was Active.
